Patent US8106053B2, “5-phenyl-3-pyridazinone derivative” (Kowa Company, Ltd., priority 2007, dated 2012)

Legend:
[1] = system: PAI-1 production in human airway epithelial cells (BEAS-2B); test: Activity of inhibiting PAI-1 production using airway epithelial cells (TGF-β stimulated, ELISA); format: cell-based; conditions: BEAS-2B cells, 24 hours, PAI-1 in culture supernatant by ELISA
Protocol: The effect of a compound on PAI-1 production activity using airway epithelial cells was examined. This reflects PAI-1 concentration in the lung tissue related to fibrosis (lung).
The effect on the amount of PAI-1 produced using human airway epithelial cells (BEAS-2B) was examined. After 0.1 ml each of BEAS-2B cells prepared at 2×10^6 cells/ml was added to a collagen I-coated 96-well plate, preincubated for 24 hours, 0.1 ml of a medium containing […] TGF-β was added thereto and incubated for 24 hours, the amount of PAI-1 in the culture supernatant was determined using an ELISA kit. The test substance was dissolved in dimethyl sulfoxide (final concentration, 0.1% or less), and was prepared at 0.2, 1, 5 and 25 μM using a phosphate buffer, and added after preculturing. The activity of inhibiting PAI-1 production of the compound of the present invention was expressed in terms of the IC50 value and shown in Table 2.

[2] = system: C57BL/6 mice, bleomycin-induced pulmonary fibrosis; test: Bleomycin-induced pulmonary fibrosis model, amount of lung hydroxyproline; format: in vivo; conditions: 0.3 mg/kg orally once daily, three weeks after intratracheal bleomycin 6 mg/kg, relative to solvent-administration group
From the text: It has been reported that bleomycin administration into the trachea leads to pulmonary fibrosis. Its pathological findings including the hypertrophy and fibrosis of the alveolar wall, increased inflammatory cells, the increased amount of hydroxyproline etc. are similar to clinical idiopathic pulmonary fibrosis, and it has been often used as an experimental model of pulmonary fibrosis (Biochem. Biophys. Res. Comm. 288, 747 (2001)). To C57BL/6 mice (6-week-old, female), bleomycin hydrochloride (Bleo: NIPPON KAYAKU CO., LTD) (6 mg/kg, 25 μl/animal) was injected into the bronchus together with 500 μl of compressed air. Three weeks after administration into the trachea, the amount of hydroxyproline in the lung was determined. 0.3 mg/kg of the test substance was suspended in 0.5% carboxymethyl cellulose sodium, and orally administered once daily. The effect of the compound of the present invention was expressed in the inhibition percentage relative to the increased amount of lung hydroxyproline of the solvent-administration group, and shown in Table 3.

Compound	IC50 [1] [µM]	Inhibition percentage relative to the increased amount of pulmonary hydroxyproline [2] [%]	IC50 ([1]; Homo sapiens) [µM]
5-(3-(cyclopropylmethyl)-4-methoxyphenyl)-2-methylpyridazin-3-one [Compound No. 2]	16.8	66	
5-(4-methoxy-3-(tetrahydrofuranyloxy)phenyl)-2-phenylpyridazin-3-one [Compound No. 9]		117	
COc1ccc(-c2cn[nH]c(=O)c2)cc1OC [Compound No. 1, 5-(3,4-dimethoxyphenyl)pyridazin-3-one]			14.1
COc1ccc(-c2cnn(C)c(=O)c2)cc1OC1CCCC1 [Compound No. 3, 5-(3-(cyclopentyloxy)-4-methoxyphenyl)-2-methylpyridazin-3-one]		68	5.8
COc1ccc(-c2cn[nH]c(=O)c2)cc1OC1CCOC1 (centres unmarked) [Compound No. 4, 5-(4-methoxy-3-(3-tetrahydrofuranyloxy)phenyl)pyridazin-3-one]			8.4
COc1ccc(-c2cnn(-c3ccccc3)c(=O)c2)cc1OC1CCCC1 [Compound No. 6, 5-(3-(cyclopentyloxy)-4-methoxyphenyl)-2-phenylpyridazin-3-one]		84	
COc1ccc(-c2cnn(C)c(=O)c2)cc1OC1CCOC1 (centres unmarked) [Compound No. 12, 5-(4-methoxy-3-(3-tetrahydrofuranyloxy)phenyl)-2-methylpyridazin-3-one]			4
COc1ccc(-c2cnn(C)c(=O)c2)cc1O[C@H]1CCOC1 [Compound No. 16, (S)-5-(4-methoxy-3-(3-tetrahydrofuranyloxy)phenyl)-2-methylpyridazin-3-one]			23.2
COc1ccc(-c2cnn(Cc3ccc4ccccc4n3)c(=O)c2)cc1OC1CCCC1 [Compound No. 19, 5-(3-(cyclopentyloxy)-4-methoxyphenyl)-2-(2-quinolylmethyl)pyridazin-3-one]		132	
